Laboratory results: patent publication EP0422215B1, “ANTIBACTERIAL AND AN[…]” (THE ROCKEFELLER UNIVERSITY, priority 1989, dated 1990)
Where no end group is shown, it is not given here.

What was measured:
Assay type in all cases: cell-based
[1] = test system: Sheep Red Cells; assay: lysis of sheep red blood cells (lysis assay or inhibition zone plate assay with SRC); conditions: for concentration lytic to sheep red blood cells: stated in running text; for LETHAL CONCENTRATION SRC: SRC = Sheep Red Cells, ? indicates turbid zone (melittin gives clear zone)
Description: These values were obtained by either the lysis assay normally used for melittin or by an adaptation of the antibacterial inhibition zone assay of the above-cited Hultmark et al. articles to plates with sheep red cells (SRC). With respect to the latter, sterile agarose plates contained 6 ml of medium with 1% agarose, 0.9% NaCl and 10% SRC suspended in Alsevers solution. A dilution series of peptide was applied in 3mm wells each loaded with 3 µl of the respective samples. The plates were incubated at 30°C for 24 h, the zones were recorded and LC values calculated as described in the Hultmark et al. articles. Clear zones were recorded after a few hours of incubation and the use of such data gave an LC value of the same order as readings after 24 h. This plate assay is faster and more convenient than the lysis assay normally used for melittin.

[2] = test system: B. subtilis Bsll; conditions: overnight incubation at 30°C; for LETHAL CONCENTRATION Bsll + ME: B. subtilis, plates prepared with medium E; for LETHAL CONCENTRATION Bsll: Bsll = B. subtilis, thin agarose plates
Description: (§1) The products of the invention were tested for activity against a variety of test organisms selected to represent a number of different types of pathogens some of them known to be particularly virulent by the inhibition zone assay of Hoffmann et al. (1981) Insect Biochem. 11 537-548. Thin agar or agarose plates (8.5 cm diameter) were prepared with 6 ml of rich medium containing 100 µg/ml of streptomycin and 2 x 10^5 viable cells of a test organism resistant to streptomycin. Wells of […] were punched in the plates and 3 µl of serially diluted samples were placed in the wells. The diameters of the zones of inhibition around the wells were measured after overnight incubation at 30° or 37°C. For each peptide the squares of the zone diameters were plotted against the logarithm of the concentration, and from the slopes and intercepts the lethal concentrations were calculated as described by Hultmark (1983) EMBO J. 2, 571-76 or Hultmark et al. (1982) Eur. J. Biochem. 127 207-217.
(§2) Novel peptides CA(1-8)M(1-18), CA(1-9)M(1-17), CB(1-13)M(1-13), CA(1-17)M(1-9), CA(1-18)M(1-8), M(1-13)CA(1-22) and M(1-13)CA(1-13) were prepared as described above (see Examples 1-6). These novel peptides and CA, CB, and M were tested for activity against a variety of organisms selected to represent a number of different types of pathogens, some of them known to be particularly virulent, by the inhibition zone assay of Hoffmann et al. (1981), Insect Biochem. 11 537-48. As in Examples 1-6, thin agarose plates were prepared with the respective organisms. The diameters of the zones of inhibition were measured after overnight incubation at 30°C. The lethal concentrations were determined as described above (see Examples 1-6; Hultmark et al. articles cited thereat).

[3] = test system: E. coli D21; conditions: thin agarose plates, overnight incubation at 30°C
Description: as §1, §2

[4] = test system: P. aeruginosa OT97; conditions: thin agarose plates, overnight incubation at 30°C
Description: as §1, §2

[5] = test system: S. aureus Cowan I; conditions: thin agarose plates, 30°C, * indicates flat concentration dependence
Description: as §1, §2

[6] = test system: S. pyogenes; conditions: thin agarose plates, overnight incubation at 30°C
Description: as §1, §2

| Compound | concentration lytic to sheep red blood cells [1] [µM] | LETHAL CONCENTRATION Bsll + ME [2] [µM] | LETHAL CONCENTRATION Bsll [2] [µM] | LETHAL CONCENTRATION D21 [3] [µM] | LETHAL CONCENTRATION OT97 [4] [µM] | LETHAL CONCENTRATION Staph [5] | LETHAL CONCENTRATION Strep [6] [µM] | LETHAL CONCENTRATION SRC [1] | concentration lytic to sheep red blood cells ([1]; listed as CA(1-13) M(1-13)) | fold improvement over natural melittin in lysis of red cells ([1]; compared with melittin) |
| --- | --- | --- | --- | --- | --- | --- | --- | --- | --- | --- |
| CC[C@H](C)[C@H](NC(=O)CNC(=O)[C@@H]1CCCN1C(=O)CNC(=O)[C@H](C)NC(=O)[C@H](CCCCN)NC(=O)[C@@H](NC(=O)[C@@H](NC(=O)CNC(=O)[C@H](CC(=O)O)NC(=O)[C@H](CCCNC(=N)N)NC(=O)[C@@H](NC(=O)[C@H](CC(N)=O)NC(=O)[C@H](CCC(N)=O)NC(=O)CNC(=O)[C@@H](NC(=O)[C@H](CCCCN)NC(=O)[C@H](CCC(=O)O)NC(=O)[C@@H](NC(=O)[C@H](CCCCN)NC(=O)[C@H](CCCCN)NC(=O)[C@H](Cc1ccccc1)NC(=O)[C@H](CC(C)C)NC(=O)[C@H](CCCCN)NC(=O)[C@H](Cc1c[nH]c2ccccc12)NC(=O)[C@@H](N)CCCCN)[C@@H](C)CC)C(C)C)[C@@H](C)CC)[C@@H](C)CC)[C@@H](C)CC)C(=O)NCC(=O)N[C@@H](C)C(=O)N[C@H](C(=O)N[C@@H](CC(C)C)C(=O)N[C@@H](CCCCN)C(=O)N[C@H](C(=O)N[C@@H](CC(C)C)C(=O)N[C@H](C(=O)N[C@H](C(=O)NCC(=O)N[C@@H](CC(C)C)C(N)=O)[C@@H](C)O)[C@@H](C)O)C(C)C)C(C)C [CA(1-24)M(1-13)] | > 100 | – | – | – | – | – | – | – | – | – |
| CC[C@H](C)[C@H](NC(=O)[C@H](CC(C)C)NC(=O)[C@H](C)NC(=O)[C@@H]1CCCN1C(=O)[C@H](CC(C)C)NC(=O)CNC(=O)[C@@H](NC(=O)[C@@H](NC(=O)[C@H](CC(C)C)NC(=O)[C@@H](NC(=O)[C@H](CCCCN)NC(=O)[C@H](CC(C)C)NC(=O)[C@@H](NC(=O)[C@H](C)NC(=O)CNC(=O)[C@@H](NC(=O)CNC(=O)[C@H](CCC(=O)O)NC(=O)[C@@H](NC(=O)[C@H](CCCCN)NC(=O)[C@H](CCCCN)NC(=O)[C@H](Cc1ccccc1)NC(=O)[C@H](CC(C)C)NC(=O)[C@H](CCCCN)NC(=O)[C@H](Cc1c[nH]c2ccccc12)NC(=O)[C@@H](N)CCCCN)[C@@H](C)CC)[C@@H](C)CC)C(C)C)C(C)C)[C@@H](C)O)[C@@H](C)O)C(N)=O [CA(1-9)M(1-17)] | – | 0.9 | 0.7 | 0.3 | 1 | 6 µM | 0.3 | >600 µM | – | – |
| CC[C@H](C)[C@H](NC(=O)CN)C(=O)NCC(=O)N[C@@H](C)C(=O)N[C@H](C(=O)N[C@@H](CC(C)C)C(=O)N[C@@H](CCCCN)C(=O)N[C@H](C(=O)N[C@@H](CC(C)C)C(=O)N[C@H](C(=O)N[C@H](C(=O)NCC(=O)N[C@@H](CC(C)C)C(=O)N[C@@H](CCCCN)C(=O)N[C@@H](Cc1c[nH]c2ccccc12)C(=O)N[C@@H](CCCCN)C(=O)N[C@@H](CC(C)C)C(=O)N[C@@H](Cc1ccccc1)C(=O)N[C@@H](CCCCN)C(=O)N[C@@H](CCCCN)C(=O)N[C@H](C(=O)N[C@@H](CCC(=O)O)C(=O)N[C@@H](CCCCN)C(=O)N[C@H](C(=O)NCC(=O)N[C@@H](CCC(N)=O)C(=O)N[C@@H](CC(N)=O)C(=O)N[C@H](C(=O)N[C@@H](CCCNC(=N)N)C(=O)N[C@@H](CC(=O)O)C(=O)NCC(=O)N[C@H](C(=O)N[C@H](C(=O)N[C@@H](CCCCN)C(=O)N[C@@H](C)C(N)=O)[C@@H](C)CC)[C@@H](C)CC)[C@@H](C)CC)C(C)C)[C@@H](C)CC)[C@@H](C)O)[C@@H](C)O)C(C)C)C(C)C [M(1-13)CA(1-22)] | – | 0.2 | – | 0.7 | – | 5* µM | 1 | 40? µM | – | – |
| CC[C@H](C)[C@H](NC(=O)CNC(=O)[C@H](CCC(N)=O)NC(=O)CNC(=O)[C@@H](NC(=O)[C@H](CCCCN)NC(=O)[C@H](CCC(=O)O)NC(=O)[C@@H](NC(=O)[C@H](CCCCN)NC(=O)[C@H](CCCCN)NC(=O)[C@H](Cc1ccccc1)NC(=O)[C@H](CC(C)C)NC(=O)[C@H](CCCCN)NC(=O)[C@H](Cc1c[nH]c2ccccc12)NC(=O)[C@@H](N)CCCCN)[C@@H](C)CC)C(C)C)C(=O)NCC(=O)N[C@@H](C)C(=O)N[C@H](C(=O)N[C@@H](CC(C)C)C(=O)N[C@@H](CCCCN)C(=O)N[C@H](C(=O)N[C@@H](CC(C)C)C(=O)N[C@H](C(=O)N[C@H](C(=O)NCC(=O)N[C@@H](CC(C)C)C(N)=O)[C@@H](C)O)[C@@H](C)O)C(C)C)C(C)C [CA(1-13)M(1-13)] | > 100 | – | – | – | – | – | – | – | greater than 200 µM | – |
| KWKLFKKIEKVGQNIRDGGIGAVLKV-NH2 [CA(1-18)M(1-8)] | – | 20 | 4 | 1 | 15 | >600 µM | 3 | >600 µM | – | – |
| CC[C@H](C)[C@H](NC(=O)CNC(=O)[C@H](CCC(N)=O)NC(=O)[C@H](CCC(N)=O)NC(=O)[C@H](CCCNC(=N)N)NC(=O)[C@H](CCCCN)NC(=O)[C@H](CCCNC(=N)N)NC(=O)[C@H](CCCCN)NC(=O)[C@@H](NC(=O)[C@H](Cc1c[nH]c2ccccc12)NC(=O)[C@H](CO)NC(=O)[C@@H](NC(=O)[C@@H](N)CC(C)C)[C@@H](C)CC)[C@@H](C)CC)C(=O)NCC(=O)N[C@@H](C)C(=O)N[C@H](C(=O)N[C@@H](CC(C)C)C(=O)N[C@@H](CCCCN)C(=O)N[C@H](C(=O)N[C@@H](CC(C)C)C(=O)N[C@H](C(=O)N[C@H](C(=O)NCC(=O)N[C@@H](CC(C)C)C(N)=O)[C@@H](C)O)[C@@H](C)O)C(C)C)C(C)C [M(16-26)M(1-13)] | > 240 | – | – | – | – | – | – | – | – | 40-60 fold |
| CC[C@H](C)[C@H](NC(=O)CN)C(=O)NCC(=O)N[C@@H](C)C(=O)N[C@H](C(=O)N[C@@H](CC(C)C)C(=O)N[C@@H](CCCCN)C(=O)N[C@H](C(=O)N[C@@H](CC(C)C)C(=O)N[C@H](C(=O)N[C@H](C(=O)NCC(=O)N[C@@H](CC(C)C)C(=O)N[C@@H](CCCCN)C(=O)N[C@@H](Cc1c[nH]c2ccccc12)C(=O)N[C@@H](CCCCN)C(=O)N[C@@H](CC(C)C)C(=O)N[C@@H](Cc1ccccc1)C(=O)N[C@@H](CCCCN)C(=O)N[C@@H](CCCCN)C(=O)N[C@H](C(=O)N[C@@H](CCC(=O)O)C(=O)N[C@@H](CCCCN)C(=O)N[C@H](C(=O)NCC(=O)N[C@@H](CCC(N)=O)C(N)=O)C(C)C)[C@@H](C)CC)[C@@H](C)O)[C@@H](C)O)C(C)C)C(C)C [M(1-13)CA(1-13)] | – | 0.1 | 0.3 | 1 | 5 | 5* µM | 1 | 80? µM | – | – |
| KWKLFKKIEKVGQNIRDGIGAVLKVL-NH2 [CA(1-17)M(1-9)] | – | 1 | 0.5 | 0.5 | 5 | 4 µM | 0.2 | >600 µM | – | – |
